# Measurements reported in patent US5747239A, “Synthetic peptides specific for the detection of antibodies to HCV, diagnosis of HCV infection and preventions thereof as vaccines” (United Biomedical, Inc., priority 1994, dated 1998).
# How the values were obtained:
# Format in all cases: binding, human
# antibodies to HCV [1] = test: NS-1 peptide ELISA, Panel II (asymptomatic individuals, mainland China and Taiwan); conditions: for % IP: NS-1 peptides, Panel II (CH1-CH7), relative to pep1 (231C)
# Experimental: Wells of 96-well plates were coated for 1 hour at 37° C. with each of the 16 peptides (designated as peptides 241A-C, 231A-E, 232A-D, 233C, 234A-C), synthesized according to sequences derived from the NS-1 region (Table 3A), at 5 ug/mL at 100 uL per well in 10 mM NaHCO3 buffer, pH 9.5. Each peptide's immunoreactivity was measured as previously described (see Example 1), using an 8 member serum panel (Panel I).
# A panel of serum samples from individuals coming from regions in which hepatitis C is endemic, namely mainland China and Taiwan, were tested for evidence of reactivity to these NS-1 protein derived peptides. Twenty-four samples were chosen from individuals who had no recognizable symptoms of non-A, non-B hepatitis and for whom the peptide based HCV EIA, Format C, as described in Example 11, was nonreactive. Seven of the 24 samples (29%) were reactive against one or more peptides from the NS-1 region, indicative of the presence of long term protective antibodies responsive to this region. This 7 member panel (designated as Panel II, CH1-CH7) was used to further characterize these NS-1 peptides for their immunoreactivity.
# The peptide with the greatest reactivity against the serum Panel II again was pep1 (designated 231c in Table 3A). Using this peptide as a standard, the relative immunoreactivity for each of the other 15 peptides from the NS-1 region are calculated in Table 3A.
# antibodies to HCV [2] = test: NS-1 peptide ELISA, early and late HCV infection panels
# Experimental: In addition, all sixteen NS-1 peptides were tested on panels of samples representing HCV-antibody positive donors (n=9) in an early stage of infection, namely plasmapheresis donors with the first occurrence of an ALT level >100 i.u./L, and those asymptomatic individuals (n=14) disqualified from blood donation because of a reactive result for anti-HIV or HBc, for whom the anti-HCV result probably represents a past infection.
# These select panels were chosen from hundreds of HCV positive sera for their ability to recognize NS-1 antigens. For both groups, peptide designated as 232A (pep2) had the greatest immunoreactivity. Using pep2 as a standard, the relative immunoreactivity of each peptide was calculated (Table 3C).
# antibodies to HCV [3] = test: Peptide ELISA for relative immunoreactivity, 8 member HCV serum panel (Panel I); conditions: NS-3 peptides (Tables 4B-4D), relative to pep3 (279A)
# antibodies to HCV [4] = test: as above
# Experimental: As an example to illustrate how relative (%) immunoreactivity for HCV synthetic peptides is measured, wells of 96-well plates are coated for 1 hour at 37° C., with each of the following peptides: IIH, V, VIIIE and pep11 at 5 ug/mL at 100 uL per well in 10 mM NaHCO3 buffer, pH 9.5. The peptide coated wells were then incubated with 250 uL of 3% by weight of gelatin in PBS in 37° C. for 1 hour to block non-specificprotein binding sites, followed by three washes with PBS containing 0.05% by volume of TWEEN 20 and then dried. The test specimens containing a panel of eight well-characterized HCV antibody positive patient sera were diluted with PBS containing 20% by volume normal goat serum, 1% by weight gelatin and 0.05% by volume TWEEN 20 at dilutions of 1:20 volume to volume, respectively. 200 uL of the diluted specimens were added to each of the wells and allowed to react for 15 minutes at 37° C.
# The wells were then washed six times with 0.05% by volume TWEEN 20 in PBS in order to remove unbound antibodies. Horseradish peroxidase conjugated goat anti-human IgG was used as a second antibody tracer to bind with the HCV antibody-peptide antigen complex formed in positive wells. 100 uL of peroxidase labeled goat anti-human IgG at a dilution of 1:1800 in 1% by volume normal goat serum, 0.05% by volume TWEEN 20 in PBS was added to each well and incubated at 37° C. for another 15 minutes.
# The wells were washed six times with 0.05% by volume TWEEN 20 PBS to remove unbound antibody and reacted with 100 uL of the substrate mixture containing 0.04% by weight orthophenylenediamine (OPD) and 0.12% by volume hydrogen peroxide in sodium citrate buffer, pH 5.0.
# This substrate mixture was used to detect the peroxidase label by forming a colored product. Reactions were stopped by the addition of 100 uL of 1.0M H2 SO4 and the A492 mm measured. Results of relative immunoreactivity for each of the peptides obtained from this study are shown in Table A using peptide II H as the reference.
# [5] = Early HCV Infection panel, n = 9
# [6] = Late HCV Infection panel, n = 14
Molecule,% IP (antibodies to HCV [1]),% Relative Immunoreactivity in comparison to Pep2 (232A) (antibodies to HCV [2]; [5]),% Relative Immunoreactivity in comparison to Pep2 (232A) (antibodies to HCV [2]; [6]),% Relative Immunoreactivity (antibodies to HCV [3]),further results
ANGSGPDQRPYCWHYPPKPCGIVPAKSVCGPVYC [231B],96.4%,30.9%,46.7%,–,–
AYMSKAHGIDPNIRTGVRTITTGSPITYSTYGKFLADGGCSGGAYDIIICDECHSTDAT [262E],–,–,–,3.6%,–
CPERLASCRPLTDFDQGWGPISYANGSGPDQRPYCWHYPPKPCGIVPAKSVC [241C],93.6%,44.7%,84.7%,–,–
CPERLASCRPLTDFDQGWGPISYANGSGPDQRPYCWHYPPKPCGIVPAKSVCGPVYC [231E],87.6%,70.9%,83.4%,–,–
CRPLTDFDQGWGPISYANGSGPDQRPYCWHYPPKPCGIVPAKSVC [241B],92.9%,32.7%,75.0%,–,–
CRPLTDFDQGWGPISYANGSGPDQRPYCWHYPPKPCGIVPAKSVCGPVYC [231D],65.3%,23.3%,43.5%,–,–
DRSGAPTYSWGENDTDVFVLNNTRPPLGNWFGCTWMNSTGFTKVCGAPPC [232D],25.9%,50.0%,46.7%,–,Absorbance (antibodies to HCV [4]; Panel I sample 4): 785 mA; result with the remaining 7 panel members (antibodies to HCV [4]; Panel I without sample 4): negative
EAACNWTRGERCDLEDRDRSELS [234A],20.5%,9.5%,15.7%,–,A492 nm by EIA (mA) (antibodies to HCV [1]; Panel II sample CH-1): 118 mA; A492 nm by EIA (mA) (antibodies to HCV [1]; Panel II sample CH-2): 232 mA; A492 nm by EIA (mA) (antibodies to HCV [1]; Panel II sample CH-3): 64 mA; A492 nm by EIA (mA) (antibodies to HCV [1]; Panel II sample CH-4): 227 mA; A492 nm by EIA (mA) (antibodies to HCV [1]; Panel II sample CH-5): 206 mA; A492 nm by EIA (mA) (antibodies to HCV [1]; Panel II sample CH-6): 202 mA; A492 nm by EIA (mA) (antibodies to HCV [1]; Panel II sample CH-7): 151 mA
EVALSTTGEIPFYGKAIPLEVIKGGRHLIFCHSKKKCDEL [261B],–,–,–,3.1%,–
FLADGGCSGGAYDIIICDECHSTDATSILGIGTVLDQAETAG [279B],–,–,–,3%,–
GCSGGAYDIIICDECHSTDATSILGIGTVLDQAETAG [279A],–,–,–,100.0%,–
LHCPTDCFRKHPDATYSRCGSGPWITPRCLVDYPYRLWHWPC [233C],16.8%,9.9%,17.5%,–,A492 nm by EIA (mA) (antibodies to HCV [1]; Panel II sample CH-1): 123 mA; A492 nm by EIA (mA) (antibodies to HCV [1]; Panel II sample CH-2): 174 mA; A492 nm by EIA (mA) (antibodies to HCV [1]; Panel II sample CH-3): 72 mA; A492 nm by EIA (mA) (antibodies to HCV [1]; Panel II sample CH-4): 238 mA; A492 nm by EIA (mA) (antibodies to HCV [1]; Panel II sample CH-5): 114 mA; A492 nm by EIA (mA) (antibodies to HCV [1]; Panel II sample CH-6): 175 mA; A492 nm by EIA (mA) (antibodies to HCV [1]; Panel II sample CH-7): 89 mA
PNIRTGVRTITTGSPITYSTYGKFLADGGCSGGAYDIIICDECHSTDAT [262D],–,–,–,9.3%,–
QGWGPISYANGSGPDQRPYCWHYPPKPCGIVPAKSVC [241A],63.9%,23.9%,43.8%,–,–
QGWGPISYANGSGPDQRPYCWHYPPKPCGIVPAKSVCGPVYC [231C],100.0%,88.6%,62.7%,–,"A492 nm by EIA (mA) (antibodies to HCV [1]; Panel II sample CH-1): 2237 mA; A492 nm by EIA (mA) (antibodies to HCV [1]; Panel II sample CH-2): 2472 mA; A492 nm by EIA (mA) (antibodies to HCV [1]; Panel II sample CH-3): 171 mA; A492 nm by EIA (mA) (antibodies to HCV [1]; Panel II sample CH-4): 218 mA; A492 nm by EIA (mA) (antibodies to HCV [1]; Panel II sample CH-5): 311 mA; A492 nm by EIA (mA) (antibodies to HCV [1]; Panel II sample CH-6): 247 mA; A492 nm by EIA (mA) (antibodies to HCV [1]; Panel II sample CH-7): 206 mA; immunopotency index (antibodies to HCV [4]; Panel I, compared with peptide VIIIE): 13.9%"
RPYCWHYPPKPCGIVPAKSVCGPVYC [231A],83.2%,46.8%,48.4%,–,–
RTITTGSPITYSTYGKFLADGGCSGGAYDIIICDECHS [275A],–,–,–,18.2%,–
RTITTGSPITYSTYGKFLADGGCSGGAYDIIICDECHSTDATSILGIGTVLDQAETAG [279E],–,–,–,2.2%,–
SWGENDTDVFVLNNTRPPLGNWFGCTWMNSTGFTKVCGAPPC [232C],27.9%,21.7%,22.0%,–,–
TIFKIRMYVGGVEHRLEAACNWTRGERCDLEDRDRSELS [234C],8.8%,12.1%,44.5%,–,–
TTGSPITYSTYGKFLADGGCSGGAYDIIICDECHSTDAT [262B],–,–,–,4.7%,–
TVLDQAETAGARLVVLATATPPGSVTVPHPNIEEVAL [274A],–,–,–,2.0%,–
VFVLNNTRPPLGNWFGCTWMNSTGFTKVCGAPPC [232B],82.9%,91.4%,83.5%,–,–
VGGVEHRLEAACNWTRGERCDLEDRDRSELS [234B],17.9%,13.2%,20.9%,–,–
YGKFLADGGCSGGAYDIIICDECHSTDAT [262A],–,–,–,6.9%,–
TMRSPVFTDNSSPPVVPQSFQVAHLHAPTGSGKSTKVPAAYAAQGYKVLVLNPSVAATLGFGAYMSKAHGIDPNIRTGVRTITTGSPITYSTYGKFLADGGCSGGAYDIIICDECHS (peptide) TMRSPVFTDNSSPPVVPQSFQVAHLHAPTGSGKSTKVPAAYAAQGYKVLVLNPSVAATLGFGAYMSKAHGIDPNIRTGVRTITTGSPITYSTYGKFLADGGCSGGAYDIIICDECHS,–,–,–,5.4%,–
HLHAPTGSGKSTKVPAAYAAQGYKVLVLNPSVAATLGFGAYMSKAHGIDPNIRTGVRTITTGSPITYSTYGKFLADGGCSGGAYDIIICDECHS (peptide) HLHAPTGSGKSTKVPAAYAAQGYKVLVLNPSVAATLGFGAYMSKAHGIDPNIRTGVRTITTGSPITYSTYGKFLADGGCSGGAYDIIICDECHS,–,–,–,9.6%,–
